Measurements published in patent US20250361230A1, “LATS Inhibitors and Uses Thereof” (The USA, as Represented by the Secretary, Dept. of Heath …, priority 2022, published 2025).

Experiments:
LATS1 = target: T1, LATS1 (Homo sapiens, UniProt O95835); assay: RBC HotSpot kinase assay (33P-ATP, P81 filter-binding), LATS1; format: biochemical; conditions: biochemical kinase inhibition; read-out: LATS1 IC50
T1 sequence (O95835 1-1130): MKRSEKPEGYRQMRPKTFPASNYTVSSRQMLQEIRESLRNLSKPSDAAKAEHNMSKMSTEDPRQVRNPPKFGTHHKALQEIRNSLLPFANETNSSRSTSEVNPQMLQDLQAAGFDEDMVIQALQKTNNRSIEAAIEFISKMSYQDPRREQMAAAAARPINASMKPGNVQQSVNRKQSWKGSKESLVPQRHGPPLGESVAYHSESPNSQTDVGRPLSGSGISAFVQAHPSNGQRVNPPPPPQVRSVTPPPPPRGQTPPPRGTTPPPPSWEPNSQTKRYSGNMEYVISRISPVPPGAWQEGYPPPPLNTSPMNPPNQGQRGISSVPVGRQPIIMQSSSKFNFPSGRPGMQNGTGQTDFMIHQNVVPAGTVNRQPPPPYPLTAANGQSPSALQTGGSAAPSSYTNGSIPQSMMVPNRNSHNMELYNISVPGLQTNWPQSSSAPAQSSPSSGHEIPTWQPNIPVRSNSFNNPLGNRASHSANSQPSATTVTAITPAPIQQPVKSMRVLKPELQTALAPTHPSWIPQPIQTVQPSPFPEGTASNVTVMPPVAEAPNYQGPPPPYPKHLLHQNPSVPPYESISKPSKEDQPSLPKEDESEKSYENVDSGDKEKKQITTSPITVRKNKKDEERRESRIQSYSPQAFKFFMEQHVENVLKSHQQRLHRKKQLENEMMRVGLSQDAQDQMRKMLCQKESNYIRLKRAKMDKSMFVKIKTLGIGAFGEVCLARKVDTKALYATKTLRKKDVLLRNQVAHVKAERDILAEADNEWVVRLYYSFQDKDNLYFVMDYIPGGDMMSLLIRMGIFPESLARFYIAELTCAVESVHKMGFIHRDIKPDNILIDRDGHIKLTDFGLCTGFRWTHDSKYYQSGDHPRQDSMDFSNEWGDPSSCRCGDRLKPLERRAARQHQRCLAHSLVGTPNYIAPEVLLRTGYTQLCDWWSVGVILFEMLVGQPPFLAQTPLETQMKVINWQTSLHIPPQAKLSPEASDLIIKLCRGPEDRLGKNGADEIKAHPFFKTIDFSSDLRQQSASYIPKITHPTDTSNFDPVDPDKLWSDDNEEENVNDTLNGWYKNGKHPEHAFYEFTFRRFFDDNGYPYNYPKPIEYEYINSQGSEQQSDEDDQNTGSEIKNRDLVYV
Summary of the method: (§1)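 Kinase in Hepes pH 7.5 buffer with Mg2+, EGTA, Brij35, BSA, vanadate, DTT and 1% DMSO, plus required cofactors and substrate, was preincubated 20 min at room temperature with compound. Reaction was started with 33P-ATP and run 2 h, then detected by P81 filter binding. IC50 (nM) came from 10-point singlet curves.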

AKT = AKT (Homo sapiens, UniProt P31749); assay: RBC HotSpot kinase assay (33P-ATP, P81 filter-binding), AKT; format: biochemical; conditions: biochemical kinase inhibition; read-out: AKT IC50
Chain of AKT (P31749 whole entry): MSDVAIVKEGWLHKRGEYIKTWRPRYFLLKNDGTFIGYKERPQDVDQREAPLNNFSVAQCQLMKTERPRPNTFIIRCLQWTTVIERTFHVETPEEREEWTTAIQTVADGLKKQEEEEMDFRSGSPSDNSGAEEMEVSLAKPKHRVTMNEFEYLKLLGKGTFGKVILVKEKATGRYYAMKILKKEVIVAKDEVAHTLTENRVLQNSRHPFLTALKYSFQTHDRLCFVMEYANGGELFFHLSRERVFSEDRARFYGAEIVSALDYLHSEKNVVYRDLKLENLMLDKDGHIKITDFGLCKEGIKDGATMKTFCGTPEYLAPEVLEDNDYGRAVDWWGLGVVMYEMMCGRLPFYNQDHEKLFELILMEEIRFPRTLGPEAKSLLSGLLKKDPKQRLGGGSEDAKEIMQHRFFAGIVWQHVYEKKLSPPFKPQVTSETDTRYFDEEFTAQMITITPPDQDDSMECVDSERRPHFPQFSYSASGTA
Summary of the method: as §1

IC50 (LATS1): 5.6 nM | IC50 (AKT): 12.1 nM
SMILES: Cc1cc(-c2ccnc3[nH]cc(C#N)c23)ccc1[C@@]1(O)[C@H](C)CN(C2CCS(=O)(=O)CC2)C[C@@H]1C [Compound 2003, 4-(4-((3S,4s,5R)-1-(1,1-dioxidotetrahydro-2H-thiopyran-4-yl)-4-hydroxy-3,5-dimethylpiperidin-4-yl)-3-methylphenyl)-1H-pyrrolo[2,3-b]pyridine-3-carbonitrile]
